The target in experiment [1] is T1, Steroid 17-alpha-hydroxylase/17,20 lyase (Homo sapiens, UniProt P05093).
T1 sequence (P05093 whole entry): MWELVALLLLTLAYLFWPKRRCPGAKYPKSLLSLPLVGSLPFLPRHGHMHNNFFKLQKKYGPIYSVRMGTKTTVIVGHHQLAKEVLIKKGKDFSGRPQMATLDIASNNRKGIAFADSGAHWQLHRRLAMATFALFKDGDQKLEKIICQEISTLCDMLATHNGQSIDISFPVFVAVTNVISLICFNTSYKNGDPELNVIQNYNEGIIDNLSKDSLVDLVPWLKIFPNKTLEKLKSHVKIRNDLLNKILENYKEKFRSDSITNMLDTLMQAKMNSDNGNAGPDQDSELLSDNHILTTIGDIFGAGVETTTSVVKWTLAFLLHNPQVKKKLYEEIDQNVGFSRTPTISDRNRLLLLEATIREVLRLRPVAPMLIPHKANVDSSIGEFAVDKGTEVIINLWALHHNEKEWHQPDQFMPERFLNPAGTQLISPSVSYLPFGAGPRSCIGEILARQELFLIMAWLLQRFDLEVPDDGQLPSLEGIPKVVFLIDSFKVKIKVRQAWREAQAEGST
Description: Inhibition of human CYP17 expressed in Escherichia coli co-expressing rat NADPH-P450-reductase using progesterone as substrate

Experiment [2] deals with T2, Aromatase (Homo sapiens, UniProt P11511).
T2 sequence (P11511 whole entry): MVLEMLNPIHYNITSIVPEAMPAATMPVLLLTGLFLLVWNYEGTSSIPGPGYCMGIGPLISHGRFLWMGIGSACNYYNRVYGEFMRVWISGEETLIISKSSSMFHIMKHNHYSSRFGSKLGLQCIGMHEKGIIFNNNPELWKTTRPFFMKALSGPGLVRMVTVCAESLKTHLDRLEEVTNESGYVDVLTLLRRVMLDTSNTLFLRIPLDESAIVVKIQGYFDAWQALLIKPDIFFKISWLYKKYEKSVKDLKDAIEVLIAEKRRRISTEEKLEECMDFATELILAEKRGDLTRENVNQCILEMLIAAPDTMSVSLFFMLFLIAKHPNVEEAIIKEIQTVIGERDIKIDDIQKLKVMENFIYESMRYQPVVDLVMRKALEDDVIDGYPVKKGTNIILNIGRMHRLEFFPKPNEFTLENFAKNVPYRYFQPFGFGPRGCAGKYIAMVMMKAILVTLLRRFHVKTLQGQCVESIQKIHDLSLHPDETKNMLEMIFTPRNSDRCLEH
Description: Inhibition of human placental CYP19 using [1beta-3H]androstenedione as substrate by 3H2O-method

Experiment [3] deals with T3, Cytochrome P450 11B1, mitochondrial (Homo sapiens, UniProt P15538).
T3 sequence (P15538 whole entry): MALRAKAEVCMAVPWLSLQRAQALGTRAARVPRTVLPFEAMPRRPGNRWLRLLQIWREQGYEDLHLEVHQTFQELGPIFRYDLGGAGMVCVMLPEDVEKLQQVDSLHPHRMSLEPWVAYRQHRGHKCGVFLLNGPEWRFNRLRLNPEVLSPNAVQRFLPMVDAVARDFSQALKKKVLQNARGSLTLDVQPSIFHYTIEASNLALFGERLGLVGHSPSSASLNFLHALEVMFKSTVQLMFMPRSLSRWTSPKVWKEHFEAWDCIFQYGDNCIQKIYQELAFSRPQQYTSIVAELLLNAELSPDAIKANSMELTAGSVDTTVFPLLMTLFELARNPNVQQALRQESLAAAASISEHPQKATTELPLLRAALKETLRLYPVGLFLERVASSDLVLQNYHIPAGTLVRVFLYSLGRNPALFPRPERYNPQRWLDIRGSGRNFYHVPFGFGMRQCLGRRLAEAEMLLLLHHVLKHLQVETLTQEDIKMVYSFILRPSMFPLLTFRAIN
Description: Inhibition of human CYP11B1 expressed in hamster V79MZh cells using [1,2-3H]-11-deoxycorticosterone as substrate

Experiment [4] addresses T4, Cytochrome P450 11B2, mitochondrial (Homo sapiens, UniProt P19099).
T4 sequence (P19099 whole entry): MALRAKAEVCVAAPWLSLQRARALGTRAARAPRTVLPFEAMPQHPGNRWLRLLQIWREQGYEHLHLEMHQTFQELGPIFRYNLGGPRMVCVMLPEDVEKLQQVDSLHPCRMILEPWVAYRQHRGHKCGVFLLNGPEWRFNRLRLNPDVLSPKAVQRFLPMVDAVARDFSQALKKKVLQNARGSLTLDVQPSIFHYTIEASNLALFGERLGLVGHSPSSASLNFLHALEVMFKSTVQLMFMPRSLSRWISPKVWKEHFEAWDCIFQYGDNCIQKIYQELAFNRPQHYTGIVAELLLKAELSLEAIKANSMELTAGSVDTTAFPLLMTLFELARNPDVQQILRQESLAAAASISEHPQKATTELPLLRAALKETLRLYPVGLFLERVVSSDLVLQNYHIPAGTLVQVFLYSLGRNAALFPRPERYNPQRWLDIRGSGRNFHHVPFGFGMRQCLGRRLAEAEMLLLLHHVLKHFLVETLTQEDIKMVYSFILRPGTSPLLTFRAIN
Description: Inhibition of human CYP11B2 expressed in hamster V79MZh cells using [1,2-3H]-11-deoxycorticosterone as substrate

Some results are limits rather than exact numbers.

For `CCC(C)Oc1ccc(Cn2ccnc2)c2c(=O)c3ccccc3oc12` (configuration not stated), the IC50 in experiment [1] was more than 5000 nM; in experiment [2] it was 575 nM; in experiment [3] it was 13.1 nM; in experiment [4] it was 15.3 nM.
In the same order, the values of `O=c1c2ccccc2oc2c(-c3ccccc3)ccc(Cn3ccnc3)c12` are 1890 nM, 300 nM, 156 nM and 104 nM.
Taken in the same sequence, the figures for `CC(C)CCOc1ccc(Cn2ccnc2)c2c(=O)c3ccccc3oc12` were more than 5000 nM, 837 nM, 24.4 nM and 25.2 nM.
As to `O=c1c2ccccc2oc2c(OCC3CC3)ccc(Cn3ccnc3)c12`, the IC50 is more than 5000 nM in experiment [1], 565 nM in experiment [2], 5.5 nM in experiment [3] and 24.1 nM in experiment [4].
Taken in the same sequence, the figures for `Nc1ccc(Cn2ccnc2)c2c(=O)c3ccccc3oc12` were 1740 nM, 6390 nM, 785 nM and 676 nM.
In the case of `C[C@]12CC[C@H](O)CC1=CC[C@@H]1[C@@H]2CC[C@]2(C)C(c3cccnc3)=CC[C@@H]12` [ABIRATERONE], the IC50 in experiment [2] is more than 5000 nM.
Regarding `O=c1c2ccccc2oc2cccc(Cn3ccnc3)c12`, the IC50 in experiment [3] was found to be 99.1 nM; in experiment [4], 114 nM.
As for `O=c1c2ccccc2oc2c(OC3CCCC3)ccc(Cn3ccnc3)c12`, the IC50 in experiment [1] was more than 5000 nM; in experiment [2], 260 nM; in experiment [3], 268 nM; in experiment [4], 99.7 nM.
Turning to `O=c1c2ccccc2oc2c(Br)ccc(Cn3ccnc3)c12`, the values for the half-maximal inhibitory concentration (IC50) in experiment [3] and in experiment [4] were 6.7 nM and 8.5 nM, respectively.
Regarding `O=c1c2ccccc2oc2c(O)ccc(Cn3ccnc3)c12`, the IC50 was 493 nM in experiment [1], 170 nM in experiment [2], 416 nM in experiment [3] and 235 nM in experiment [4].
Taken in the same sequence, the figures for `O=c1c2ccccc2oc2c(I)ccc(Cn3ccnc3)c12` were 1350 nM, 460 nM, 19.2 nM and 23.5 nM.
In the same order, the values of `CCOc1ccc(Cn2ccnc2)c2c(=O)c3ccccc3oc12` are more than 5000 nM, 1970 nM, 25.4 nM and 14.8 nM.
In the same order, the values of `CC(C)Oc1ccc(Cn2ccnc2)c2c(=O)c3ccccc3oc12` are 1250 nM, 400 nM, 92.5 nM and 19.1 nM.
In the case of `O=c1c2ccccc2oc2c([N+](=O)[O-])ccc(Cn3ccnc3)c12`, the IC50 in experiment [3] was determined as 22.3 nM; in experiment [4], 31.1 nM.
Consider `O=c1c2ccccc2oc2c(Cl)ccc(Cn3ccnc3)c12`, for which the IC50 in experiment [1] was determined as 260 nM; in experiment [2] it was 480 nM; in experiment [3], 0.5 nM; in experiment [4], 3 nM.
As to `N#Cc1ccc(Cn2ccnc2)c2c(=O)c3ccccc3oc12`, the IC50 in experiment [3] came out at 13.4 nM; in experiment [4], 19.5 nM.
On to `COc1ccc(Cn2ccnc2)c2c(=O)c3ccccc3oc12`, for which the 50% inhibitory concentration (IC50) is 610 nM in experiment [1], 1100 nM in experiment [2], 80.1 nM in experiment [3] and 41.1 nM in experiment [4].

For the origin of these results see ChEMBL document CHEMBL2331307, “Modulation of cytochromes P450 with xanthone-based molecules: from aromatase to aldosterone synthase and steroid 11β-hydroxylase inhibition” (J Med Chem, 2013).
